{"source": "patent US12723024B2", "about": "(priority 2021, dated 2026)", "key": {"[1]": {"experiment": "Hygroscopicity (water uptake) of salt hits", "assay_type": "physicochemical", "conditions": "salt screening sample", "text": "(§1) According to the salt screening results (see Table 4), totally 19 potential salt hits were identified. All the potential salt hits were further investigated by Differential Scanning Calorimetry (DSC), Thermogravimetric analysis (TGA), H-NMR, Ion chromatography (IC), Karl Fischer titration (KF), and Polarized Light Microscopy (PLM) to confirm their identity and evaluate their physicochemical properties as shown in Table 5 below."}, "[2]": {"conditions": "wetted with water or ethanol, ground, dried 10 min; XRPD", "protocol": "Wet samples were ground gently with a mortar and pestle. Post granulation samples were dried under ambient condition for 10 min. Potential change of polymorph form and degree of crystallinity were evaluated by XRPD."}, "[3]": {"experiment": "Salt screening (slurry crystallization)", "assay_type": "physicochemical", "parameters": "key to Salt screening result: (+) shows that a crystalline salt was formed; (−) physical mixtures", "conditions": "for Polymorph obtained in salt screening: XRPD; for Salt screening result: slurry 50° C. then 25° C.", "protocol": "About 45 mg was added to a suitable solvent and different equivalents of acids were added under stirring at 50° C. for about 2 hours and then at 25° C. for at least 32 hours. Ethanol, acetone, and ACN were used as screening solvents. When no precipitation was obtained or only a few solids were obtained, the solutions were placed at 5° C. for crystallization.\n(§2) Obtained suspensions were taken out and centrifuged. Solids obtained was analysed by XRPD. Salts with high or medium crystallinity were further characterized (see Table 5)."}, "[4]": {"experiment": "Thermogravimetric analysis (TGA) weight loss", "assay_type": "physicochemical", "conditions": "large scale batch, at the temperature printed in the same cell (100-170° C.)"}, "[5]": {"experiment": "Dynamic vapor sorption (DVS) test at 25° C.", "assay_type": "physicochemical", "conditions": "for Desorp. (%) / Sorp. (%): cycle 40-0-95-0-40% RH"}, "[6]": {"experiment": "Crystallinity by XRPD", "assay_type": "physicochemical", "conditions": "large scale batch", "protocol": "as §2, §1"}, "[7]": {"conditions": "ground manually with mortar and pestle for 5 min; XRPD", "protocol": "Potential change of polymorph form and degree of crystallinity were evaluated by XRPD."}, "[8]": {"experiment": "Thermogravimetric analysis (TGA) weight loss", "assay_type": "physicochemical", "conditions": "salt screening sample, at the temperature given (80-200° C.)", "text": "as §1"}, "[9]": {"conditions": "listed as succinate salt Polymorph A"}}, "note": "Where two headings read alike, the source gives them in different places.", "data": [{"smiles": "COc1cc(C(F)(F)F)c(OC)cc1[C@@H]1CCCNC1.O=C(O)CCC(=O)O", "note": "[Succinate salt Polymorph A (anhydrate), succinic acid salt of (S)-3-(2,5-dimethoxy-4-(trifluoromethyl)phenyl)piperidine]", "values": [{"measurement": "Hygroscopicity (water uptake % w/w)", "setting": "[1]", "result": "(~0.7%) % w/w"}, {"measurement": "Change of polymorph form and degree of crystallinity", "setting": "[2]", "result": "No change in polymorph form and crystallinity was observed"}, {"measurement": "Polymorph obtained in salt screening", "setting": "[3]; ACN", "result": "Polymorph A"}, {"measurement": "Salt screening result", "setting": "[3]; ACN", "result": "+"}, {"measurement": "Polymorph obtained in salt screening", "setting": "[3]; Acetone", "result": "Polymorph A"}, {"measurement": "Salt screening result", "setting": "[3]; Acetone", "result": "+"}, {"measurement": "Polymorph obtained in salt screening", "setting": "[3]; EtOH", "result": "Polymorph A"}, {"measurement": "Salt screening result", "setting": "[3]; EtOH", "result": "+"}, {"measurement": "Weight loss (%) at Temperature (° C.)", "setting": "[4]", "result": 0.2, "unit": "at %"}, {"measurement": "Weight loss (%) at Temperature (° C.)", "setting": "[4]; [9]", "result": "about 0.2%"}, {"measurement": "Desorp. (%)", "setting": "[5]; 0% RH, 25° C.", "result": 0.00, "unit": "%"}, {"measurement": "Sorp. (%)", "setting": "[5]; 0% RH, 25° C.", "result": 0.06, "unit": "%"}, {"measurement": "Desorp. (%)", "setting": "[5]; 10% RH, 25° C.", "result": 0.01, "unit": "%"}, {"measurement": "Sorp. (%)", "setting": "[5]; 10% RH, 25° C.", "result": 0.06, "unit": "%"}, {"measurement": "Desorp. (%)", "setting": "[5]; 20% RH, 25° C.", "result": 0.01, "unit": "%"}, {"measurement": "Sorp. (%)", "setting": "[5]; 20% RH, 25° C.", "result": 0.07, "unit": "%"}, {"measurement": "Water absorbed from 40% RH to 95% RH", "setting": "[5]; 25° C.", "result": "about 0.21%"}, {"measurement": "Desorp. (%)", "setting": "[5]; 30% RH, 25° C.", "result": 0.02, "unit": "%"}, {"measurement": "Sorp. (%)", "setting": "[5]; 30% RH, 25° C.", "result": 0.07, "unit": "%"}, {"measurement": "Desorp. (%)", "setting": "[5]; 40% RH, 25° C.", "result": 0.02, "unit": "%"}, {"measurement": "Sorp. (%)", "setting": "[5]; 40% RH, 25° C.", "result": 0.07, "unit": "%"}, {"measurement": "Desorp. (%)", "setting": "[5]; 50% RH, 25° C.", "result": 0.02, "unit": "%"}, {"measurement": "Sorp. (%)", "setting": "[5]; 50% RH, 25° C.", "result": 0.09, "unit": "%"}, {"measurement": "Desorp. (%)", "setting": "[5]; 60% RH, 25° C.", "result": 0.03, "unit": "%"}, {"measurement": "Sorp. (%)", "setting": "[5]; 60% RH, 25° C.", "result": 0.08, "unit": "%"}, {"measurement": "Desorp. (%)", "setting": "[5]; 70% RH, 25° C.", "result": 0.10, "unit": "%"}, {"measurement": "Sorp. (%)", "setting": "[5]; 70% RH, 25° C.", "result": 0.09, "unit": "%"}, {"measurement": "Desorp. (%)", "setting": "[5]; 80% RH, 25° C.", "result": 0.11, "unit": "%"}, {"measurement": "Sorp. (%)", "setting": "[5]; 80% RH, 25° C.", "result": 0.10, "unit": "%"}, {"measurement": "Desorp. (%)", "setting": "[5]; 90% RH, 25° C.", "result": 0.16, "unit": "%"}, {"measurement": "Sorp. (%)", "setting": "[5]; 90% RH, 25° C.", "result": 0.14, "unit": "%"}, {"measurement": "Desorp. (%)", "setting": "[5]; 95% RH, 25° C.", "result": 0.29, "unit": "%"}, {"measurement": "Sorp. (%)", "setting": "[5]; 95% RH, 25° C.", "result": 0.29, "unit": "%"}, {"measurement": "XRPD after DVS test", "setting": "[5]; DVS at 25° C.", "result": "No form changes"}, {"measurement": "Hygroscopicity", "setting": "[5]; DVS at 25° C., grade in words", "result": "non-hygroscopic"}, {"measurement": "Crystallinity", "setting": "[6]", "result": "High"}, {"measurement": "Crystallinity", "setting": "[6]; [9]", "result": "high crystallinity"}, {"measurement": "Change of polymorph form and degree of crystallinity", "setting": "[7]", "result": "No change in polymorph form and crystallinity was observed"}, {"measurement": "Weight loss (%)", "setting": "[8]", "result": 2.1, "unit": "%"}]}]}
